In US20260209220A1, “SUBSTITUTED TETRAHYDROPYRROLO-PYRIDINONE COMPOUNDS AND THEIR USE IN TREATING MEDICAL CONDITIONS” (Karuna Therapeutics, Inc., priority 2022, published 2026):

Experiments:
[1] = target: T1, hM4 receptors (Homo sapiens, UniProt P08173); assay: Human M4 PAM PERK assay (CHO cells, TR-FRET, with EC20 acetylcholine); format: cell-based
T1 construct: expressed in transfected cells; host or cells: CHO cells
T1 sequence (P08173 1-479): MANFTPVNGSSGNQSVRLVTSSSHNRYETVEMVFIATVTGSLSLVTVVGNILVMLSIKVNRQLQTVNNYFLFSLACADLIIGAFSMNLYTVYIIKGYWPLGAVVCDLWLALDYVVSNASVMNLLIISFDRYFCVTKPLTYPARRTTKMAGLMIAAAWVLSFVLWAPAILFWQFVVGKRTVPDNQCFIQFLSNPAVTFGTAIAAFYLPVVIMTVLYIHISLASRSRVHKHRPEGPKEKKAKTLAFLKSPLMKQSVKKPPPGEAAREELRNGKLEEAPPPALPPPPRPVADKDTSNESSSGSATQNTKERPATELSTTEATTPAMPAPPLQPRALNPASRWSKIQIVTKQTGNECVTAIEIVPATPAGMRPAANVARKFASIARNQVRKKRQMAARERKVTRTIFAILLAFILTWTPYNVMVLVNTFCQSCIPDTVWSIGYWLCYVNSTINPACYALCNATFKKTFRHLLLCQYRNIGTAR
Procedure, shortened: (§1)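 CHO cells expressing human or rat M4, serum-starved 4 h, then given compound (10-point, 10 μM top, ½-log) with EC20 acetylcholine (10 nM final) for 5 min at 37 °C. Lysates assayed for phospho-ERK by TR-FRET after 2 h detection at RT.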

[2] = target: T2, rM4 receptors (Rattus norvegicus, UniProt P08485); assay: Rat M4 PAM PERK assay (CHO cells, TR-FRET, with EC20 acetylcholine); format: cell-based
T2 construct: expressed in transfected cells; host or cells: CHO cells
T2 sequence (P08485 1-478): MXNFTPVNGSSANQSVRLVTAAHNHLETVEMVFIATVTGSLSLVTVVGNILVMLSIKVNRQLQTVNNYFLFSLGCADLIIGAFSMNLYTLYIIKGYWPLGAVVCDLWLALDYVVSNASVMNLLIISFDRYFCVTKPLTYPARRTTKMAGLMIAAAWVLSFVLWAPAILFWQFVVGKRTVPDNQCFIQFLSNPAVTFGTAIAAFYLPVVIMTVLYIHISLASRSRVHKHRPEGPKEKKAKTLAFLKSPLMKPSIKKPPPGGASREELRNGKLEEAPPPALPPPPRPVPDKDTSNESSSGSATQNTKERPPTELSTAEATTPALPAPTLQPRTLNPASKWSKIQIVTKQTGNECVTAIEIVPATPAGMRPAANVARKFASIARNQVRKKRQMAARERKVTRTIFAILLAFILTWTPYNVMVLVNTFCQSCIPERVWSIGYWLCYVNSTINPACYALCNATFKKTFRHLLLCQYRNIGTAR
Procedure, shortened: as §1

[3] = target: T3, human M4 receptor (Homo sapiens, UniProt P08173); assay: M4 GTPγS PAM assay (CHO-K1 membranes, 35S-GTP binding, with EC20 acetylcholine); format: biochemical; conditions: with EC20 acetylcholine (40 nM)
T3 construct: expressed in transfected cells; host or cells: CHO-K1 cells (membranes)
T3 sequence (P08173 1-479): T1 sequence (P08173 1-479)
Protocol: The M4 GTPγS PAM method was used. Membranes were prepared for GTPgS binding assays from CHO-K1 cells stably expressing human M4 receptor. Briefly, cells were grown in 5-layer cell culture flasks. Cells were washed with 50 mL of PBS and then dissociated with 0.05% trypsin. Dissociated cells were then collected by centrifugation at 650×g for 8 minutes at 4° C. Pellets were washed again in PBS by centrifugation and resuspended in 30 mL of 20 mM HEPES, 10 mM EDTA, pH 7.4. After sitting on ice for 30 min, membranes were collected by centrifugation at 50000×g for 15′ at 4° C., resuspended in 30 mL of 20 mM HEPES, 0.1 mM EDTA, pH 7.4 and collected again by centrifugation. Pellets were then washed twice by centrifugation in 30 mL of 20 mM HEPES, pH 7.4, and stored at −80° C. until the day of the assay. On the day of the assay, pellets were thawed on ice and resuspended in 1 mL of 20 mM HEPES, pH 7.4, 10 mM MgCl2, 100 mM NaCl using dounce homogenization. Membrane protein concentration is determined by BCA protein assay (Promega, Madison, WI) according to Promega guidelines.
On the day of the assay, serial dilutions of test PAM compounds were brought up in assay buffer (20 mM HEPES, 10 mM MgCl2, 100 mM NaCl) at 4X final assay concentration. […] of membrane homogenates (containing […] of membrane protein) were prepared in assay buffer supplemented with GDP at […] final assay concentration (final assay concentration of GDP is 5 μM for M2 and 0.1 μM for M4) and dispensed into 96 well polypropylene, U-bottom Greiner plates. 25 ml of vehicle or test PAM compound at 4× of final assay concentration diluted in the assay buffer were added to membrane and plates are incubated for 10-15 minutes at room temperature with gentle shaking. Then, […] of EC20 acetylcholine in assay buffer at 4× final assay concentration was added to assay plates (EC20 final assay concentrations was 40 nM for human M4).
Plates were then incubated, with shaking, for an additional 10-15 minutes. […] of 0.4 nM 35S-GTP (Perkin Elmer, Waltham, MA) in assay buffer was added to assay mixtures. The binding reaction is left on the shaker for 1 hour at room temperature. Membranes in assay reactions were then transferred to GF/C filter plates (Unifilter, Perkin Elmer) and washed three times using a FilterMate Harvester (Perkin Elmer) with cold assay buffer containing no GDP. Filter plates were then dried at 40° C. overnight followed by the addition of […] of Beta Plate Scintillation liquid. Plates are top and bottom sealed before being read on TopCount scintillation counter (Perkin Elmer, Waltham, MA).

| EC50 [1] | EC50 [2] | EC50 [3] | Structure (SMILES) |
| --- | --- | --- | --- |
| 50 to 200 nM | 200 to 1000 nM | 200 to 1000 nM | Cc1cc(=O)n(C)c2c1CN(C(=O)CC1CN(c3cccc(C#N)c3)C1)C2 [Compound I-25] |
| 50 to 200 nM | 200 to 1000 nM | 50 to 200 nM | Cc1cc(=O)n(C)c2c1CN(C(=O)CC1CN(c3ncc(C(F)(F)F)s3)C1)C2 [Compound I-29] |
| 200 to 1000 nM | > 1000 nM | 200 to 1000 nM | Cc1cc(=O)n(C)c2c1CN(C(=O)CC1CN(c3ncns3)C1)C2 [Compound I-18] |
| < 50 nM | 200 to 1000 nM | 50 to 200 nM | Cc1c2c(n(C)c(=O)c1C)CN(C(=O)CC1CN(c3ncns3)C1)C2 [Compound I-44] |
| 200 to 1000 nM | 50 to 200 nM | 50 to 200 nM | Cc1cc(=O)n(C)c2c1CN(C(=O)CC1CN(c3ccc(C4CC4)cc3)C1)C2 [Compound I-19] |
| 200 to 1000 nM | 50 to 200 nM | 50 to 200 nM | Cc1c2c(n(C)c(=O)c1C)CN(C(=O)CC1CN(c3ccc(F)c(C4CC4)c3)C1)C2 [Compound I-55] |
| 200 to 1000 nM | 200 to 1000 nM | < 50 nM | Cc1cc(=O)n(C)c2c1[C@@H](C)N(C(=O)CC1CN(c3ccc(C(F)(F)F)cc3)C1)C2 [Compound I-117, (R)-1,4,5-trimethyl-6-(2-(1-(4-(trifluoromethyl)phenyl)azetidin-3-yl)acetyl)-1,5,6,7-tetrahydro-2H-pyrrolo[3,4-b]pyridin-2-one] |
| 200 to 1000 nM | 200 to 1000 nM | 50 to 200 nM | Cc1cc(=O)n(CC2CC2)c2c1CN(C(=O)CC1CN(c3ccc(C(F)(F)F)cc3)C1)C2 [Compound I-102] |
| 50 to 200 nM | 50 to 200 nM | < 50 nM | Cc1c2c(n(C)c(=O)c1F)CN(C(=O)CC1CN(c3ccc(C(F)(F)F)cc3)C1)C2 [Compound I-85] |
| 50 to 200 nM | 50 to 200 nM | < 50 nM | Cc1c2c(n(C)c(=O)c1C)CN(C(=O)CC1CN(c3ccc(C(F)(F)F)cc3)C1)C2 [Compound I-43] |
| < 50 nM | 50 to 200 nM | < 50 nM | Cc1c2c(n(C)c(=O)c1C)CN(C(=O)CC1CN(c3ccc(C(C)(C)O)c(F)c3)C1)C2 [Compound I-59] |
| 200 to 1000 nM | 200 to 1000 nM | > 1000 nM | Cn1c2c(c(C(F)(F)F)cc1=O)CN(C(=O)CC1CN(c3cccnc3)C1)C2 [Compound I-91, 1-Methyl-6-(2-(1-(pyridin-3-yl)azetidin-3-yl)acetyl)-4-(trifluoromethyl)-1,5,6,7-tetrahydro-2H-pyrrolo[3,4-b]pyridin-2-one] |
| < 50 nM | 50 to 200 nM | < 50 nM | Cc1c2c(n(C)c(=O)c1C)CN(C(=O)CC1CN(c3ccc(C#N)cc3)C1)C2 [Compound I-45] |
| 50 to 200 nM | 200 to 1000 nM | 200 to 1000 nM | COc1cc(N2CC(CC(=O)N3Cc4c(C)cc(=O)n(C)c4C3)C2)cc(C(F)(F)F)n1 [Compound I-39, 6-(2-(1-(2-Methoxy-6-(trifluoromethyl)pyridin-4-yl)azetidin-3-yl)acetyl)-1,4-dimethyl-1,5,6,7-tetrahydro-2H-pyrrolo[3,4-b]pyridin-2-one] |
| 200 to 1000 nM | 50 to 200 nM | 200 to 1000 nM | COc1cccc(N2CC(CC(=O)N3Cc4c(C)cc(=O)n(C)c4C3)C2)c1 [Compound I-7] |
| < 50 nM | < 50 nM | < 50 nM | Cc1c2c(n(C)c(=O)c1Cl)CN(C(=O)CC1CN(c3ccc(C(F)(F)F)cc3)C1)C2 [Compound I-68] |
| < 50 nM | 200 to 1000 nM | 50 to 200 nM | Cc1cc(=O)n(C)c2c1CN(C(=O)CC1CN(c3ccnc(OCC4CC4)c3)C1)C2 [Compound I-10] |
| 200 to 1000 nM | 200 to 1000 nM | 50 to 200 nM | Cc1cc(=O)n(C)c2c1CN(C(=O)CC1CN(c3cccc(C(F)(F)F)c3)C1)C2 [Compound I-13] |
| 50 to 200 nM | 50 to 200 nM | 50 to 200 nM | Cc1c2c(n(C)c(=O)c1C)CN(C(=O)CC1CN(c3cnc(C4CC4)cn3)C1)C2 [Compound I-58] |
| 200 to 1000 nM | 200 to 1000 nM | 50 to 200 nM | Cc1cc(=O)n(C)c2c1C(C)N(C(=O)CC1CN(c3ccc(C(F)(F)F)cc3)C1)C2 (stereo not drawn) [Compound I-115] |
| < 50 nM | 50 to 200 nM | 50 to 200 nM | Cc1c2c(n(C)c(=O)c1Cl)CN(C(=O)CC1CN(c3ccc(C(F)(F)F)nc3)C1)C2 [Compound I-78] |
| 50 to 200 nM | 200 to 1000 nM | < 50 nM | Cc1cc(=O)n(C)c2c1CN(C(=O)CC1CN(c3cccnc3)C1)C2 [Compound I-3] |
| 50 to 200 nM | 50 to 200 nM | 200 to 1000 nM | Cc1cc(=O)n(C)c2c1CN(C(=O)CC1CN(c3cnnc(C(F)(F)F)c3)C1)C2 [Compound I-30] |
| 200 to 1000 nM | 200 to 1000 nM | 200 to 1000 nM | Cc1c2c(n(C)c(=O)c1C)CN(C(=O)CC1CN(c3ccc(C4CC4)c(F)c3)C1C)C2 (single isomer, unassigned) [Compound I-62] |
| > 1000 nM | > 1000 nM | > 1000 nM | Cc1c2c(n(C)c(=O)c1Cl)CN(C(=O)C(C)C1CN(c3ccnc(C(F)(F)F)c3)C1)C2 (single isomer, unassigned) [Compound I-82, 3-Chloro-1,4-dimethyl-6-(2-(1-(2-(trifluoromethyl)pyridin-4-yl)azetidin-3-yl)propanoyl)-1,5,6,7-tetrahydro-2H-pyrrolo[3,4-b]pyridin-2-one] |
| < 50 nM | 200 to 1000 nM | 50 to 200 nM | Cc1c2c(n(C)c(=O)c1Cl)CN(C(=O)CC1CN(c3ncns3)C1)C2 [Compound I-80] |
| 50 to 200 nM | > 1000 nM | 50 to 200 nM | Cc1c2c(n(CC(F)(F)F)c(=O)c1Cl)CN(C(=O)CC1CN(c3ccncn3)C1)C2 [Compound I-95] |
| < 50 nM | 200 to 1000 nM | < 50 nM | Cc1cc(=O)n(C)c2c1CN(C(=O)CC1CN(c3cc(F)cc(F)c3)C1)C2 [Compound I-36] |
| < 50 nM | 50 to 200 nM | 50 to 200 nM | Cc1cc(=O)n(C)c2c1CN(C(=O)CC1CN(c3ccc(C#N)cc3)C1)C2 [Compound I-17] |

| Structure (SMILES) | EC50 [1] | EC50 [2] | EC50 [3] |
| --- | --- | --- | --- |
| Cc1cc(=O)n(C)c2c1CN(C(=O)CC1CN(c3ccc(C#N)c(C(F)(F)F)c3)C1)C2 [Compound I-27] | 50 to 200 nM | 50 to 200 nM | 50 to 200 nM |
